# According to patent publication US8916535B2, “Use of 2′,5′-oligoadenylate derivative compounds” (Protea Biopharma N.V., priority 2010, dated 2014):
# How the values were obtained:
# XMRV = assay: XMRV-replication in acutely infected CD4+ T lymphocytes from healthy individuals (ELISA of culture supernatants); assay type: cell-based; conditions: freshly isolated CD4+ T cells treated with 10, 100 and 1000 nM then infected with XMRV; 96 h post-infection; compared to untreated controls
# Protocol: First, the activity of 2-5A^N1B on XMRV-replication is tested in CD4^+ T lymphocytes purified from healthy individuals. To determine the effective dose of 2-5A^N1B during acute XMRV infection, freshly isolated CD4^+ T cells are treated with three concentrations of 2-5A^N1B (10, 100 and 1000 nM) and then infected with XMRV. XMRV-replication is assessed in culture supernatants by ELISA.
# wild-type XMRV = assay: XMRV replication in chronically infected CD4+ cells derived from XMRV-positive individuals (ELISA of supernatants); assay type: cell-based; conditions: purified CD4+ T lymphocytes from XMRV-positive adults; in vitro; compared to untreated cells
# Protocol: Secondly, the activity of 2-5A^N1B is tested on chronically infected cells derived from XMRV-positive individuals. XMRV-positive adults are recruited from the clinic. The antiviral response to 2-5A^N1B in vitro is assessed by ELISA in the supernatants of cultured CD4+ cells.
substance,measurement,setting,value
N^1-benzyl-3′-deoxyadenylyl-(2′-5′)-3′-deoxyadenylyl-(2′-5′)-3′-deoxyadenylyl-(2′-2″)—N^9-[(2″-hydroxy-ethoxy)-methyl]-adenine [2-5A^N1B],XMRV-replication,XMRV,significant decrease
same,replication of wild-type XMRV,wild-type XMRV,significantly inhibits
